This is an account of results in patent US5530141A, “2,4-diaryl-1,3-dithiolanes; 2,4-diaryl-1,3-dioxolanes; 2,4-diaryl-1,3-oxathiolanes; and 2,5-diaryl-1,3-oxathiolanes for the treatment of disorders mediated by platelet activating factor or products of 5-lipoxygenase” (Center for Innovative Technology, priority 1992, dated 1996).

Assay [1] relates to PAF receptor. Particulars: cited from earlier work.
In assay [2] the target is T1, specific receptors on human platelet membranes (PAF receptors) (Homo sapiens, UniProt P25105).
T1 construct: Human platelet membranes were prepared from platelet concentrates obtained from the American Red Cross Blood Services; from tissue; host or cells: human platelets (concentrates from American Red Cross Blood Services, Dedham, Mass.), membrane fractions A and B
T1 sequence (P25105 whole entry): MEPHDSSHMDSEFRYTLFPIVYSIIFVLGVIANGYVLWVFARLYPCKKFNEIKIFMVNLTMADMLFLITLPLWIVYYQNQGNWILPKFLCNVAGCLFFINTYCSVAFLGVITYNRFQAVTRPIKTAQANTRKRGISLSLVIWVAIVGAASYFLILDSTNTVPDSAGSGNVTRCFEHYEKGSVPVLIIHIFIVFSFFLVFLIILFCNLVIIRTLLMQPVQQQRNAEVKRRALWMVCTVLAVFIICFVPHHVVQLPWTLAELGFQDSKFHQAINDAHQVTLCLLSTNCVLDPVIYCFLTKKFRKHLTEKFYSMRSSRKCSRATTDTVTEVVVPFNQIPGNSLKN
The assay is described as follows: [3H]PAF binding inhibition on human platelet membranes (Table 1, PAF). The conditions noted are these: [3H]PAF 0.3 nM, pH 7.0, 4 h, 0° C. On the procedure:
Human platelet membranes were prepared from platelet concentrates obtained from the American Red Cross Blood Services (Dedham, Mass.). After several washes with platelet wash solution (150 mM NaCl, 10 mM Tris, and 2 mM EDTA, pH 7.5), the platelet pellets were resuspended in 5 mM MgCl2, 10 mM Tris, and 2 mM EDTA at pH 7.0. The cells were then quickly frozen with liquid nitrogen and thawed slowly at room temperature. The freezing and thawing procedure was repeated at least three times. For further fractionation of membrane fragments, the lysed membrane suspension was layered over the top of a discontinous sucrose density gradient of 0.25, 1.03, and 1.5M sucrose prepared in 10 mM MgCl2, 10 mM Tris and 2 mM EDTA, pH 7.0, and centrifuged at 63,500×g for 2 hr. The membrane fractions banding between 0.25 and 1.03M (membrane A) and between 1.03 and 1.5M (membrane B) were collected separately. The protein concentration of the membrane preparations was determined by Lowry's method with bovine serum albumin (BSA) as the standard. The membranes were then separated into smaller fractions (4 ml each) and stored at -80° C. and thawed before use.
b) [^3 H]PAF Binding inhibition:
The ability of [^3 H]PAF to bind to specific receptors on human platelet membranes was evaluated at optimal conditions at pH 7.0 and in the presence of 10 mM MgCl2. Membrane protein (100 ug) was added to a final 0.5 ml solution containing 0.15 pmol (0.3 nM concentration) of [^3 H]PAF and a known amount of unlabeled PAF or PAF receptor antagonist in 10 mM MgCl2, 10 mM Tris and 0.25% BSA at pH 7.0. After incubation for four hours at 0° C., the bound and unbound [^3 H]PAF were then separated through a Whatman GF/C glass fiber filter under vacuum. No degradation of filter bound [^3 H]PAF has been detected under this assay condition. The nonspecific binding was defined as the total binding in the presence of excess unlabeled PAF (1 mM) where no further displacement was found with higher concentrations of either unlabeled PAF or PAF analogs or PAF receptor antagonists. The specific binding was defined as the difference between total binding and nonspecific binding.
To determine the relative potency of tested compounds, [^3 H]PAF binding in the presence of inhibitors was normalized in terms of percent inhibition by assigning the total binding in the absence of inhibitors as 0% inhibition and the total binding in the presence of 1 mM unlabeled PAF as 100%. The percent inhibition by the compound can be calculated by the formula expressed below:
% inhibition=[(Total binding-total binding in the presence of
compound)/nonspecific binding]×100%
The IC50 was calculated as the concentration of the inhibitor necessary to obtain 50% inhibition of the specific [^3 H]PAF binding and was calculated by a nonlinear regression computer software program, GraphPad Inplot, version 3.0 (GraphPad software, San Diego, Calif.). Table 1 provides the IC50 values for a number of 2,4-diaryl-1,3-dithiolanes.

Assay [3] deals with T2, 5-LO (Rattus norvegicus, UniProt P12527).
T2 sequence (P12527 1-673): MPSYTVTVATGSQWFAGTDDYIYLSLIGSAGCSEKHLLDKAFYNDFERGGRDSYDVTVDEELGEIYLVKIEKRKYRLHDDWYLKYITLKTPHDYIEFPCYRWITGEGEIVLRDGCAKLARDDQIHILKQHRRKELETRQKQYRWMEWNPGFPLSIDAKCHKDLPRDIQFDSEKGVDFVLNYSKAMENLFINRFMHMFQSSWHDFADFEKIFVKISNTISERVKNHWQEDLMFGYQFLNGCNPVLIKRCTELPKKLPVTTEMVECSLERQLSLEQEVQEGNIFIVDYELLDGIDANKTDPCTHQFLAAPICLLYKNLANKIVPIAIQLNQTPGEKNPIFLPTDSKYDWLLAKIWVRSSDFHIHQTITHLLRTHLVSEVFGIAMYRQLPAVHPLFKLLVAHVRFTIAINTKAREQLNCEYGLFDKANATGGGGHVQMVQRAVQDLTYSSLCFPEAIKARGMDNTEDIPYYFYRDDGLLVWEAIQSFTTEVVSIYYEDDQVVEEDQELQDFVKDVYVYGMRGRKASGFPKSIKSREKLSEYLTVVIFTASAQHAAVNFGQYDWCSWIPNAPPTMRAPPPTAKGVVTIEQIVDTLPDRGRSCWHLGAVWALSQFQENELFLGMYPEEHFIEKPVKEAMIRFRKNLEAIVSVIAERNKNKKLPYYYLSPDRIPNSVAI
Kind of assay: 5-LO inhibition (Table 1). In kind it is biochemical. The conditions noted are these: for inhibition at 3 µM: read-out: 5-LO, percent @ 3 μM.

Assay [4] concerns the target T3, RBL 5-LO (Rattus norvegicus, UniProt P12527).
T3 construct: cytosol 5-lipoxygenase of rat basophilic leukemia cells (RBL); endogenous in cells; host or cells: rat basophilic leukemia (RBL) cells
T3 sequence (P12527 1-673): T2 sequence (P12527 1-673)
The assay is described as follows: RBL 5-LO inhibition (Table 2). The conditions noted are these: unit inferred. In kind it is biochemical. The source says:
A wide variety of biological assays have also been used to evaluate the ability of a compound to inhibit the enzyme 5-lipoxygenase. For example, a cytosol 5-lipoxygenase of rat basophilic leukemia cells (RBL) has been widely utilized in studies on leukotriene biosynthesis. Compounds that inhibit 5-lipoxygenase decrease the levels of leukotrienes.

Assay [5] concerns 5-lipoxygenase. The conditions noted are these: cited from earlier work.

Consider `CCCOc1c(OC)cc([C@H]2CC[C@H](c3cc(OC)c(OC)c(OC)c3)O2)cc1S(C)(=O)=O` (relative stereo) [L-659,989, trans-2-(3-methoxy-4-propoxyphenyl-5-methylsulfonyl)-5-(3,4,5-trimethoxyphenyl)tetrahydrofuran], for which, in assay [1], the “PAF receptor antagonist activity” value is listed as “orally active, potent, competitive PAF receptor antagonist”. In addition, the “equilibrium inhibition constant relative to trans-L-652,731” value in assay [1] (greater than that of trans-L-652,731) is 10 times.
Broadly, the IC50 is the midpoint of a concentration-inhibition curve. Consider `CCCCN(O)C(=O)Nc1cc(C2SCC(c3cc(OC)c(OC)c(OC)c3)S2)cc(OC)c1OC` (stereo not drawn) [compound 3, Trans-2-[3,4-dimethoxy-5-(N-n-butyl-N-hydroxyureidyl)phenyl]-4-(3,4,5-trimethoxyphenyl)-1,3-dithiolane], for which the half-maximal inhibitory concentration (IC50) in assay [2] is 67.8 nM; in assay [3], 240 nM.
On to `COc1cc([C@H]2SC[C@H](c3cc(OC)c(OC)c(OC)c3)S2)cc(N)c1OCCSc1ccc(O)cc1` (relative stereo) [compound 8, Trans-2-[5-amino-4-{2-(4'-hydroxyphenylthio)ethoxy}-3-methoxyphenyl]-4-(3,4,5-trimethoxyphenyl)-1,3-dithiolane], for which the inhibition at 3 µM in assay [3] came to 41%.
Take `COc1cc([C@H]2SC[C@H](c3cc(OC)c(OC)c(OC)c3)S2)cc(NC(=S)N(C)O)c1OC` (relative stereo) [compound 2]: in assay [3], half-maximal inhibition (IC50) required 280 nM.
As to `C=CCOc1c(NC(=O)N(O)C(C)(C)C)cc([C@@H]2O[C@@H](c3cc(OC)c(OC)c(OC)c3)CS2)cc1OC` (relative stereo), half-maximal inhibition in assay [4] (IC50) was put at 410 nM.
Take `COc1cc([C@H]2SC[C@H](c3cc(OC)c(OC)c(OC)c3)S2)cc(NC(=O)N(C)O)c1OCCSc1ccc(O)cc1` (relative stereo) [compound 9, Trans-2-[5-(N-hydroxy-N-methylureidyl)-4-{2-(4'-hydroxy-phenylthio)ethoxy}-3-methoxyphenyl]-4-(3,4,5-trimethoxyphenyl)-1,3-dithiolane]: in assay [3], the half-maximal inhibitory concentration (IC50) amounted to 120 nM.
As for `COc1cc([C@H]2CS[C@H](c3cc(OC)c(OCCSc4ccc(O)cc4)c(N(C)C)c3)S2)cc(OC)c1OC` (relative stereo) [compound 14, Trans-2-[5-(N,N-dimethylamino)-4-{2-(4'-hydroxyphenylthio)ethoxy}-3-methoxyphenyl]-4-(3,4,5-trimethoxyphenyl)-1,3-dithiolane], the inhibition at 3 µM in assay [3] was 25%.
In the case of `C=CCOc1c(NC(=O)N(O)C(C)(C)C)cc([C@H]2O[C@@H](c3cc(OC)c(OC)c(OC)c3)CS2)cc1OC` (relative stereo), the IC50 in assay [4] worked out at 250 nM.
As for `COc1cc([C@H]2SC[C@H](c3cc(OC)c(OC)c(OC)c3)S2)cc(NC(=O)N(O)C(C)(C)C)c1OC` (relative stereo) [compound 4, Cis and Trans-2-[3,4-dimethoxy-5-(N-t-butyl-N-hydroxyureidyl)phenyl]-4-(3,4,5-trimethoxyphenyl)-1,3-dithiolane], the IC50 is 798 nM in assay [2] and 320 nM in assay [3].
With `CCCCCCCCCCCCCCCCCCNC(=O)OCC(COP(=O)([O-])OCC[n+]1ccsc1)OC` (racemic) [CV-3988, rac-3-(N-n-octadecyl-carbamoyloxy-w-methoxypropyl-2-thiazolioethyl phosphate], in assay [1], the “PAF receptor antagonist activity” value is given as “PAF receptor antagonist properties”.
`COc1cc([C@H]2SC[C@H](c3cc(OC)c(OC)c(OC)c3)S2)cc(NC(=O)N(C)O)c1OCCSc1ccc(C#N)cc1` (relative stereo) [compound 13, Trans-2-[5-(N-hydroxy-N-methylureidyl)-4-{2-(4'-cyano-phenylthio)ethoxy}-3-methoxyphenyl]-4-(3,4,5-trimethoxyphenyl)-1,3-dithiolane] had an IC50 in assay [3] of 92 nM.
With `COc1cc([C@H]2CC[C@H](c3cc(OC)c(OC)c(OC)c3)S2)cc(OC)c1OC` (relative stereo) [L-653,150, trans-2,5-bis-(3,4,5-trimethoxyphenyl)tetrahydrothiophene], the “effect on the enzyme 5-lipoxygenase” value in assay [5] is “moderate inhibitor of 5-lipoxygenase”. Besides, the “PAF receptor antagonist activity” value in assay [1] is “potent PAF antagonist”.
Consider `COc1cc([C@H]2SC[C@H](c3cc(OC)c(OC)c(OC)c3)S2)cc(NC(=O)N(C)O)c1OC` (relative stereo) [compound 1, Cis and Trans-2-[3,4-dimethoxy-5-(N-hydroxy-N-methylureidyl)phenyl]-4-(3,4,5-trimethoxyphenyl)-1,3-dithiolane], for which the IC50 in assay [2] turned out to be 259 nM; in assay [3], 220 nM.
In turn, `COc1cc(C2SCC(c3cc(OC)c(OC)c(OC)c3)S2)cc(CN(O)C(C)=O)c1OC` (stereo not drawn) registered an IC50 in assay [4] of 850 nM.
As for `COc1cc([C@H]2CS[C@H](c3cc(OC)c(OCCSc4ccc(O)cc4)c([N+](=O)[O-])c3)S2)cc(OC)c1OC` (relative stereo) [compound 7, Trans-2-[4-{2-(4'-hydroxyphenylthio)ethoxy}-3-methoxy-5-nitrophenyl]-4-(3,4,5-trimethoxyphenyl)-1,3-dithiolane], in assay [3], the inhibition at 3 µM was determined as 57%.
In the case of `C=CCOc1c(NC(=O)N(C)O)cc([C@H]2SC[C@H](c3cc(OC)c(OC)c(OC)c3)S2)cc1OC` (relative stereo) [compound 5, Trans-2-[4-allyloxy-3-methoxy-5-(N-hydroxy-N-methylureidyl)phenyl]-4-(3,4,5-trimethoxyphenyl)-1,3-dithiolane], the IC50 turned out to be 561 nM in assay [2] and 170 nM in assay [3].
Take `COc1cc(C2SCC(c3cc(OC)c(OC)c(OC)c3)S2)cc(CN(O)C(N)=O)c1OC` (stereo not drawn): in assay [4], the IC50 is 1440 nM.
`C=CCC1=C[C@@]2(OC)C(=CC1=O)O[C@H](c1ccc(OC)c(OC)c1)[C@H]2C` [kadsurenone]: the “PAF receptor antagonist activity” value in assay [1] is “potent, specific and competitive inhibitor of PAF activity at the receptor level”.
Turning to `C=CCOc1c(NC(=O)N(O)C(C)(C)C)cc([C@H]2SC[C@H](c3cc(OC)c(OC)c(OC)c3)S2)cc1OC` (relative stereo) [compound 6, Trans-2-[4-allyloxy-3-methoxy-5-(N-t-butyl-N-hydroxyureidyl)phenyl]-4-(3,4,5-trimethoxyphenyl)-1,3-dithiolane], the IC50 in assay [2] came out at 543 nM; in assay [3], 570 nM.
`COc1cc([C@H]2SC[C@H](c3cc(OC)c(OC)c(OC)c3)S2)cc(NC(=O)N(O)c2ccc(Cl)cc2)c1OCCSc1ccc(O)cc1` (relative stereo) [compound 10, Trans-2-[5-(N-(p-chlorophenyl)-N-hydroxyureidyl)-4-{2-(4'-hydroxy-phenylthio)ethoxy}-3-methoxyphenyl]-4-(3,4,5-trimethoxyphenyl)-1,3-dithiolane]: the inhibition at 3 µM in assay [3] came to 64%.
